Measurements reported in US9045463B2, “Phenyl ethynyl derivatives as hepatitis C virus inhibitors” (Janssen R&D Ireland, priority 2009, dated 2015).

Tested on: HCV replicon (wild type NS3-NS5B regions of HCV type 1b) in Huh-7 luc/neo cells
Assay: HCV replicon assay (Huh-Luc cells, luciferase read-out)
Type: cell-based
Conditions: Hepatitis C virus, Huh-7, 72 h, three days incubation, luciferase activity
Source text: The in vitro antiviral activity against HCV of the compounds of formula I can be tested in a cellular HCV replicon system based on Lohmann et al. (1999) Science 285:110-113, with the further modifications described by Krieger et al. (2001) Journal of Virology 75: 4614-4624 (incorporated herein by reference), which is further exemplified in the examples section. This model, while not a complete infection model for HCV, is widely accepted as the most robust and efficient model of autonomous HCV RNA replication currently available. It will be appreciated that it is important to distinguish between compounds that specifically interfere with HCV functions from those that exert cytotoxic or cytostatic effects in the HCV replicon model, and as a consequence cause a decrease in HCV RNA or linked reporter enzyme concentration. Assays are known in the field for the evaluation of cellular cytotoxicity based for example on the activity of mitochondrial enzymes using fluorogenic redox dyes such as resazurin. Furthermore, cellular counter screens exist for the evaluation of non-selective inhibition of linked reporter gene activity, such as firefly luciferase. Appropriate cell types can be equipped by stable transfection with a luciferase reporter gene whose expression is dependent on a constitutively active gene promoter, and such cells can be used as a counter-screen to eliminate non-selective inhibitors.
The compounds of formula (I) were examined for inhibitory activity in the HCV replicon. This cellular assay is based on a bicistronic expression construct, as described by Lohmann et al. (1999) Science vol. 285 pp. 110-113 with modifications described by Krieger et al. (2001) Journal of Virology 75: 4614-4624, in a multi-target screening strategy.
In essence, the method was as follows:
The assay utilized the stably transfected cell line Huh-7 luc/neo (hereafter referred to as Huh-Luc). This cell line harbors an RNA encoding a bicistronic expression construct comprising the wild type NS3-NS5B regions of HCV type 1b translated from an Internal Ribosome Entry Site (IRES) from encephalomyocarditis virus (EMCV), preceded by a reporter portion (FfL-luciferase), and a selectable marker portion (neo^R, neomycine phosphotransferase). The construct is flanked by 5′ and 3′ NTRs (non-translated regions) from HCV type 1b. Continued culture of the replicon cells in the presence of G418 (neo^R) is dependent on the replication of the HCV RNA. The stably transfected replicon cells that express HCV RNA, which replicates autonomously and to high levels, encoding inter alia luciferase, were used for screening the antiviral compounds.
The replicon cells were plated in 384 well plates in the presence of the test and control compounds which were added in various concentrations. Following an incubation of three days, HCV replication was measured by assaying luciferase activity (using standard luciferase assay substrates and reagents and a Perkin Elmer ViewLux™ ultraHTS microplate imager). Replicon cells in the control cultures have high luciferase expression in the absence of any inhibitor. The inhibitory activity of the compound on luciferase activity was monitored on the Huh-Luc cells, enabling a dose-response curve for each test compound. EC50 values were then calculated, which represent the amount of compound required to decrease the level of detected luciferase activity by 50%, or more specifically, to reduce the ability of the genetically linked HCV replicon RNA to replicate.

Structure (SMILES) | EC50
CNC(=O)N[C@H](C(=O)N1CCC[C@H]1c1ncc(C#Cc2ccc(-c3cnc([C@@H]4CCCN4C(=O)[C@@H](NC(=O)NC)C(C)C)[nH]3)cc2)[nH]1)C(C)C [Compound 36] | 0.69 nM
CC(=O)N[C@@H](C(=O)N1CCC[C@H]1c1ncc(C#Cc2ccc(-c3cnc([C@@H]4CCCN4C(=O)[C@H](NC(C)=O)c4ccccc4)[nH]3)cc2)[nH]1)c1ccccc1 [Compound 32] | < 0.48 nM
O=C(CC1CCCCC1)N1CCC[C@H]1c1ncc(C#Cc2ccc(-c3cnc([C@@H]4CCCN4C(=O)CC4CCCCC4)[nH]3)cc2)[nH]1 [Compound 4] | 130 nM
O=C(Nc1ccccc1)N1CCC[C@H]1c1ncc(C#Cc2ccc(-c3cnc([C@@H]4CCCN4C(=O)Nc4ccccc4)[nH]3)cc2)[nH]1 [Compound 3] | 810 nM
O=C(Cc1cccnc1)N1CCC[C@H]1c1ncc(C#Cc2ccc(-c3cnc([C@@H]4CCCN4C(=O)Cc4cccnc4)[nH]3)cc2)[nH]1 [Compound 2] | 1.5 nM
COC(=O)N[C@H](C(=O)N1CCC[C@H]1c1ncc(C#Cc2ccc(-c3cnc([C@@H]4CCCN4C(=O)[C@@H](NC(=O)OC)C(C)C)[nH]3)cc2)[nH]1)C(C)C [Compound 28] | 0.036 nM
CC(C)[C@@H](C(=O)N1CCC[C@H]1c1ncc(C#Cc2ccc(-c3cnc([C@@H]4CCCN4C(=O)[C@H](C(C)C)N(C)C)[nH]3)cc2)[nH]1)N(C)C [Compound 21] | 36 nM
O=C([C@@H](c1ccccc1)N1CCCCC1)N1CCC[C@H]1c1ncc(C#Cc2ccc(-c3cnc([C@@H]4CCCN4C(=O)[C@@H](c4ccccc4)N4CCCCC4)[nH]3)cc2)[nH]1 [Compound 37] | 0.03 nM
